Where two headings read alike, the source gives them in different places.
Key:
Fsp1-Ext1CKO mice [1] = experiment: Dose response of palovarotene to inhibit OC formation (P14 and P21 cohorts); assay type: in vivo; conditions: for EC50 at AUC0-24 hr (percent decrease in total OCs at rib and limb bones): extrapolated exposure
Experimental: Nonclinical pharmacology data: Fsp1-Ext1CKO mice were administered three doses of palovarotene (0.269 mg/kg [low], 0.882 mg/kg [mid], or 1.764 mg/kg [high]) for 28 consecutive days starting treatment at Day 14 postpartum (P14 cohort), or for 21 consecutive days starting at Day 21 postpartum (P21 cohort).
To determine the dose exposure response, exposure in this study was extrapolated based on pharmacokinetic data obtained from adult wild-type (WT) mice with the assumption that pharmacokinetics in adult WT mice are similar to juvenile Fsp1-Ext 1CKO mice.

[2] = Observed pharmacokinetic parameters, fixed and weight-based dosing regimen; assay type: in vivo, human; conditions: for AUC(0-t): human, in vivo, oral; for AUC Ratio (A/P) Mean (SD) / AUC Ratio (A/P) Median / AUC Ratio (A/P) Min / AUC Ratio (A/P) max: observed vs predicted
Experimental: Table 4 summarizes the pharmacokinetic parameters of mean and median AUC0-24 values for subjects receiving 2.5 mg and 5.0 mg equivalent doses of palovarotene. Skeletally mature subjects received fixed dose regimens, while the skeletally immature subjects <18 years old were dosed via weight adjusted equivalent doses.
One other parameter known to impact systemic exposure of palovarotene is food. For the clinical studies, all subjects are instructed to administer study medication at approximately the same time each day, and following a full meal, although the exact amount consumed is not recorded.

Fsp1-Ext1CKO mice [3] = experiment: Crown-rump length in MO mouse model; assay type: in vivo
Experimental: Crown-rump length, defined as mouse body length from snout to base of the tail, was measured using a ruler in vehicle and palovarotene treated Fsp1-Ext1CKO mice and untreated wild-type (WT) littermates at baseline (Study Day 1) and, 3 and 4 weeks post initiation of palovarotene treatment (Study Day 21 and 28, respectively). As show in FIG. 3, palovarotene treatment had no effect on crown-rump length after 4 weeks of daily oral treatment in Fsp1-Ext1CKO mice compared to vehicle controls.

Fsp1-Ext1^CKO mice = experiment: Effect of palovarotene on osteochondroma (OC) formation, alcian blue whole-mount skeletal staining of rib bones; assay type: in vivo
Description: Biallelic conditional knock-out (CKO) of Ext1 using a Cre transgene driven by an Fsp1 promotor) (Fsp1-Ext1^CKO in mice leads to the formation of phenotypes characteristic of MO. Fsp1 expression in developing bone is restricted to the perichondrium and periosteum. Perichondrium-targeted Ext1 deletion in mice causes osteochondromatogenesis in long bones, vertebrae and ribs. Fsp1-Ext1^CKO mice appear normal at birth, present mild bone deformity by P (postnatal day) 28 and have normal life span. In these mice, bony protrusions consisting of bony tuberosities with a cartilage cap are first detectable after P14. These protrusions are consistent with the histological features of osteochondromas in human MO. By P28, all animals develop multiple osteochondromas that can be readily observed in whole-mount skeletal preparations. This phenotype supports the relevance of the Fsp1-Ext1^CKO mouse as a preclinical model of MO. It also mimics the findings observed in a previously developed mouse model of MO, the Col2a1-Ext1^CKO mice.
The therapeutic effect of palovarotene in MO was tested in the Fsp1-Ext1^CKO mouse model. The CKO mice were treated with palovarotene (1.05 mg/kg) or vehicle by oral gavage daily. Treatment was initiated on day 14 postpartum and continued daily for 4 weeks. The effect of palovarotene on the formation of osteochondromas (OCs) in the mouse model was evaluated using whole-mount skeletal preparation. At end of treatment, the mice were euthanized by CO2 inhalation and the carcasses were eviscerated and fixed in 95% ethanol overnight. The preparations were stained with alcian blue for 3 days, rinsed in 95% ethanol, and incubated in 2% KOH for 1-2 days. Stained preparations were cleaned in 20% glycerol/1% KOH for 14 days and transferred to 50% glycerol/50% ethanol for photography and storage. By examination under a dissecting microscope, an alcian blue-positive protrusion that was clearly distinguishable was considered as an OC. OCs were identified and counted in each of the 24 rib bones from each mouse.
The sum of these counts (total number of OCs at the rib bones) and the mean occurrence of response (number of rib bones showing no OCs vs. number of rib bones showing at least one OC) were reported for each treatment group.

[4] = PVO 2.5 mg Weight-Adjusted Equivalent
[5] = PVO 5 mg Weight-Adjusted Equivalent
[6] = mean occurrence of 24 rib bones, 1.05 mg/kg daily × 28 days, p=0.0039 vs vehicle (Fisher's exact test)

CC1(C)CCC(C)(C)c2cc(Cn3cccn3)c(/C=C/c3ccc(C(=O)O)cc3)cc21 [Palovarotene, 4-[(1E)-2-[5,6,7,8-Tetrahydro-5,5,8,8-tetramethyl-3-(1H-pyrazol-1-ylmethyl)-2-naphthalenyl]-ethenyl]-benzoic acid]
Occurrence of OCs (Fsp1-Ext1CKO mice [1]; 0.269, 0.882 or 1.764 mg/kg, 28 days from P14 or 21 days from P21, vs vehicle controls): inhibited the occurrence of OCs in a dose-dependent manner | Efficacy P14 cohort compared to P21 cohort (Fsp1-Ext1CKO mice [1]; 28 days from P14 vs 21 days from P21): Greater efficacy was observed with earlier and longer dosing in the P14 cohort | EC50 at AUC0-24 hr (percent decrease in total OCs at rib and limb bones) (Fsp1-Ext1CKO mice [1]; P14 cohort): 57 to 62 ng·h/mL | EC50 at AUC0-24 hr (percent decrease in total OCs at rib and limb bones) (Fsp1-Ext1CKO mice [1]; P21 cohort): 125 to 173 ng·h/mL | Observed exposures using weight based dosing compared with fixed dosing ([2]; 2.5 mg and 5.0 mg equivalent doses, few subjects in 2.5 mg group): tended to be lower than fixed dosing | AUC(0-t) ([2]; 2.5 mg, PVO 2.5 mg Fixed Dose, N=4, read-out: AUC0-24 h Mean (SD)): 176 ng·h/mL | AUC(0-t) ([2]; 2.5 mg, PVO 2.5 mg Fixed Dose, N=4, read-out: AUC0-24 h Median): 149 ng·h/mL | AUC(0-t) ([2]; 2.5 mg, PVO 2.5 mg Fixed Dose, N=4, read-out: AUC0-24 h Min): 107 ng·h/mL | AUC(0-t) ([2]; 2.5 mg, PVO 2.5 mg Fixed Dose, N=4, read-out: AUC0-24 h max): 31 ng·h/mL | AUC(0-t) ([2]; 2.5 mg, PVO 2.5 mg Weight-Adjusted Equivalent, N=3, read-out: AUC0-24 h Mean (SD)): 98 ng·h/mL | AUC(0-t) ([2]; 2.5 mg, PVO 2.5 mg Weight-Adjusted Equivalent, N=3, read-out: AUC0-24 h Median): 78 ng·h/mL | AUC(0-t) ([2]; 2.5 mg, PVO 2.5 mg Weight-Adjusted Equivalent, N=3, read-out: AUC0-24 h Min): 37 ng·h/mL | AUC(0-t) ([2]; 2.5 mg, PVO 2.5 mg Weight-Adjusted Equivalent, N=3, read-out: AUC0-24 h max): 179 ng·h/mL | AUC(0-t) ([2]; 5 mg, PVO 5 mg Fixed Dose, N=15, read-out: AUC0-24 h Mean (SD)): 347 ng·h/mL | AUC(0-t) ([2]; 5 mg, PVO 5 mg Fixed Dose, N=15, read-out: AUC0-24 h Median): 320 ng·h/mL | AUC(0-t) ([2]; 5 mg, PVO 5 mg Fixed Dose, N=15, read-out: AUC0-24 h Min): 144 ng·h/mL | AUC(0-t) ([2]; 5 mg, PVO 5 mg Fixed Dose, N=15, read-out: AUC0-24 h max): 667 ng·h/mL | AUC(0-t) ([2]; 5 mg, PVO 5 mg Weight-Adjusted Equivalent, N=6, read-out: AUC0-24 h Mean (SD)): 249 ng·h/mL | AUC(0-t) ([2]; 5 mg, PVO 5 mg Weight-Adjusted Equivalent, N=6, read-out: AUC0-24 h Median): 218 ng·h/mL | AUC(0-t) ([2]; 5 mg, PVO 5 mg Weight-Adjusted Equivalent, N=6, read-out: AUC0-24 h Min): 139 ng·h/mL | AUC(0-t) ([2]; 5 mg, PVO 5 mg Weight-Adjusted Equivalent, N=6, read-out: AUC0-24 h max): 363 ng·h/mL | AUC Ratio (A/P) Mean (SD) ([2]; PVO 2.5 mg Fixed Dose): 1.1 (0.7) | AUC Ratio (A/P) Median ([2]; PVO 2.5 mg Fixed Dose): 0.9 | AUC Ratio (A/P) Min ([2]; PVO 2.5 mg Fixed Dose): 0.6 | AUC Ratio (A/P) max ([2]; PVO 2.5 mg Fixed Dose): 2.1 | AUC Ratio (A/P) Mean (SD) [2, 4]: 0.8 (0.6) | AUC Ratio (A/P) Median [2, 4]: 0.6 | AUC Ratio (A/P) Min [2, 4]: 0.3 | AUC Ratio (A/P) max [2, 4]: 1.4 | AUC Ratio (A/P) Mean (SD) ([2]; PVO 5 mg Fixed Dose): 1.3 (0.7) | AUC Ratio (A/P) Median ([2]; PVO 5 mg Fixed Dose): 1.1 | AUC Ratio (A/P) Min ([2]; PVO 5 mg Fixed Dose): 0.6 | AUC Ratio (A/P) max ([2]; PVO 5 mg Fixed Dose): 2.9 | AUC Ratio (A/P) Mean (SD) [2, 5]: 1.0 (0.3) | AUC Ratio (A/P) Median [2, 5]: 0.9 | AUC Ratio (A/P) Min [2, 5]: 0.5 | AUC Ratio (A/P) max [2, 5]: 1.4 | AUCA/P ratio ([2]; overall, observed vs predicted exposures): ~1 | Effect on crown-rump length (Fsp1-Ext1CKO mice [3]; after 4 weeks of daily oral treatment, compared to vehicle controls): no effect | Long bone growth (Fsp1-Ext1CKO mice [3]; summary of the Examples): able to maintain long bone growth | Normal bone growth in the animal (Fsp1-Ext1CKO mice [3]; summary of the Examples): did not interfere with normal bone growth | Total number of OCs at the rib bones Mean (95% CI) (Fsp1-Ext1^CKO mice; 1.05 mg/kg daily × 28 days, oral gavage from day 14 postpartum, n=9, vehicle 147.3): 28.33 (23.23-33.43) | Effect on total number of OCs per rib bone and formation of OCs (Fsp1-Ext1^CKO mice; 1.05 mg/kg daily, 4 weeks, vs vehicle): reduced the total number of OCs per rib bone and prevent the formation of OCs | Number of rib bones showing at least one OC (Fsp1-Ext1^CKO mice; [6]): 16 | Number of rib bones showing no OC (Fsp1-Ext1^CKO mice; [6]): 8 | Cartilage hyperplasia (Fsp1-Ext1^CKO mice; summary of the Examples): reduced cartilage hyperplasia | Number and size of osteochondromas observed (Fsp1-Ext1^CKO mice; summary of the Examples): reduced the number and size of osteochondromas observed

Source: US10980778B2, “Methods for treating multiple osteochondroma (MO)” (Clementia Pharmaceuticals Inc., priority 2016, dated 2021)
